Assay results reported in US10881679B2, “Application of a phillyrin/phillygeninin composition in preparing a medicine or health care product for alleviating or/and treating viral diseases, and medicine or health care product for treating viral diseases” (priority 2014, dated 2021).
Where two headings read alike, the source gives them in different places. Marks after values point to notes of the source that are not given here.

Tests used:
[1] = system: enterovirus EV71; assay: Impact on virus-induced cytopathic effect in Vero cells (MTT): EV71; type: cell-based; details: EV71 100TCID50, Vero, 72 h; drug g/L as Table 1-2
[2] = system: Coxsackievirus A16 (CoxA16); assay: Impact on virus-induced cytopathic effect in Vero cells (MTT): CoxA16; type: cell-based; details: CoxA16 100TCID50, Vero, 72 h; drug g/L as Table 1-2
[3] = system: influenza virus; assay: Impact on virus-induced cytopathic effect in Vero cells (MTT): influenza virus; type: cell-based; details: influenza virus 100TCID50, Vero, 72 h; drug g/L (Table 1-2): phillyrin 0.01, Phillygeninin 0.02, compositions A, B 0.01, Ribavirin 0.70, oseltamivir phosphate 0.30
[4] = system: parainfluenza virus; assay: Impact on virus-induced cytopathic effect in Vero cells (MTT): parainfluenza virus; type: cell-based; details: parainfluenza virus 100TCID50, Vero, 72 h; drug g/L as Table 1-2
[5] = system: Coxsackie virus B3 (CVB3); assay: Impact on virus-induced cytopathic effect in Vero cells (MTT): CVB3; type: cell-based; details: CVB3 100TCID50, Vero, 72 h; drug g/L as Table 1-2
[6] = system: respiratory syncytial virus (RSV); assay: Impact on virus-induced cytopathic effect in Vero cells (MTT): RSV; type: cell-based; details: RSV 100TCID50, Vero, 72 h; drug g/L as Table 1-2
[7] = system: adenovirus (ADV); assay: Impact on virus-induced cytopathic effect in Vero cells (MTT): ADV; type: cell-based; details: ADV 100TCID50, Vero, 72 h; drug g/L as Table 1-2
[8] = system: influenza virus; type: in vivo, Kunming mice
[9] = system: parainfluenza virus; type: in vivo, Kunming mice
[10] = system: Herpes zoster simplex viruses type I (HSV-I); assay: Impact on virus-induced cytopathic effect in Vero cells (MTT): HSV-I; type: cell-based; details: HSV-I 100TCID50, Vero, 72 h; drug g/L as Table 1-2
[11] = system: parainfluenza virus; type: in vivo, Kunming mice; details: 19.5 mg/kg/d i.g. 5 days
[12] = system: influenza virus; type: in vivo, Kunming mice; details: 19.5 mg/kg/d i.g. 5 days
[13] = system: Vero cells; assay: Cytotoxicity test (MTT) on Vero cells; type: cell-based, African green monkey; details: 72 h
Protocol: Cytotoxicity test: the drugs were diluted according to the concentrations shown in table 1-1 for determination of cytotoxicity. […] In addition, 6 wells were set up as normal control group (without drugs) while another 6 pores as blank control group (medium only). Cells were grown in a 37° C. incubator under 5% CO2. […] After 72 h, 20 μL MTT solution (5 mg·mL^−1) was added into each well to continue incubation for 4 h. The culture medium in each well was sucked and discarded, 100 μL DMSO was added to each well. Then the culture was shaken for 5 min, measured OD value at 492 nm to calculate the cell survival ratio. The cell survival ratio was analyzed using a Probit regression model in SPSS 18.0 statistical software, and the maximal nontoxic concentration (TC0) and median toxic concentration (TC50) of drugs against Vero cells were calculated.

With `NC(=O)c1ncn([C@@H]2O[C@H](CO)[C@@H](O)[C@H]2O)n1` [Ribavirin] the “antiviral effective rate (ER %)” value [1] was 4.25%, the “antiviral effective rate (ER %)” value [2] was 0.70% and the “antiviral effective rate (ER %)” value [3] was 57.49** %. For the same compound, the “antiviral effective rate (ER %)” value [4] was 91.56** %, the “antiviral effective rate (ER %)” value [5] was 13.44% and the “antiviral effective rate (ER %)” value [6] was 50.08* %. The “antiviral effective rate (ER %)” value [7] was 0.43%, the “Hemagglutination titer (InX)” value ([8]; 58.5 mg/kg/d i.g. 5 days) was 21.91 ± 1.050 and the “Inhibition rate (%) of hemagglutination titer” value (shortened to “Inhibition rate (%)”) ([8]; 58.5 mg/kg/d i.g. 5 days) was 32.39%. For the same compound, the “Hemagglutination titer (InX)” value ([9]; 58.5 mg/kg/d i.g. 5 days) was 23.22, the “Inhibition rate (%)” value ([9]; 58.5 mg/kg/d i.g. 5 days) was 29.86% and the “antiviral effective rate (ER %)” value [10] was 62.92** %.
With `CCOC(=O)C1=C[C@@H](OC(CC)CC)[C@H](NC(C)=O)[C@@H](N)C1` [oseltamivir phosphate] the “antiviral effective rate (ER %)” value [1] was 51.86%, the “antiviral effective rate (ER %)” value [2] was 2.95% and the “antiviral effective rate (ER %)” value [3] was 81.76** %. The “antiviral effective rate (ER %)” value [4] was 94.52** %, the Lung index [11] was 1.243 ± 0.054 and the “Lung index inhibition rate” value [11] was 21.85. The “antiviral effective rate (ER %)” value [5] was 1.64%, the Lung index [12] was 1.178 ± 0.066 and the “Lung index inhibition rate” value [12] was 19.84. The “antiviral effective rate (ER %)” value [6] was 37.60%, the “antiviral effective rate (ER %)” value [7] was 10.31% and the “half toxic concentration (TC50)” value [13] was 832 µg/mL. For the same compound, the “maximal non-toxic concentration (TC0)” value [13] was 0.28 g/L, the “Hemagglutination titer (InX)” value ([8]; 19.5 mg/kg/d i.g. 5 days) was 20.50 ± 1.123 and the “Inhibition rate (%)” value ([8]; 19.5 mg/kg/d i.g. 5 days) was 36.73%. The “Hemagglutination titer (InX)” value ([9]; 19.5 mg/kg/d i.g. 5 days) was 22.05, the “Inhibition rate (%)” value ([9]; 19.5 mg/kg/d i.g. 5 days) was 33.40% and the “antiviral effective rate (ER %)” value [10] was 66.56** %.
